Assay results as given in patent publication US7666864B2, “Bicyclic nitroimidazole-substituted phenyl oxazolidinones” (priority 2008, dated 2010).
Values after ≈ are worked out from the molar mass of the structure shown.

System: M. tuberculosis (PA-resistant)
Assay: microbe, parasite or virus in culture
Type: cell-based, Mycobacterium tuberculosis
Settings: for MIC: Mycobacterium tuberculosis

Row | Compound | MIC [µg/mL] | MIC against PA-824 resistant strain of Mycobacterium tuberculosis H37Rv [micg/mL] | activity against PA-824 resistant strain (in words)
1 | CC(=O)NC[C@H]1CN(c2ccc(N3CCOCC3)c(F)c2)C(=O)O1 [Linezolid, linezolid, reference compound] | 0.5 (≈ 1.48 µM) | – | –
2 | CC(=O)NC[C@H]1CN(c2ccc(-c3cnc(O[C@@H]4COc5nc([N+](=O)[O-])cn5C4)nc3)c(F)c2)C(=O)O1 [Example 8, (S,S)—N-(3-{3-Fluoro-4-[2-(2-nitro-6,7-dihydro-5H-imidazo[2,1-b][1,3]oxazin-6-yloxy)-pyrimidin-5-yl]-phenyl}-2-oxo-oxazolidin-5-ylmethyl)-acetamide] | 0.5 (≈ 0.974 µM) | 0.5 | –
3 | O=[N+]([O-])c1cn2c(n1)OC[C@@H](OCc1ccc(OC(F)(F)F)cc1)C2 [PA-824, reference compound] | > 32 | – | loses its activity
4 | CC(=O)NC[C@H]1CN(c2ccc(-c3ccc(CO[C@@H]4COc5nc([N+](=O)[O-])cn5C4)cc3)c(F)c2)C(=O)O1 [Example 31, (S,S)—N-{3-[2-Fluoro-4′-(2-nitro-6,7-dihydro-5H-imidazo[2,1-b][1,3]oxazin-6-yloxymethyl)-biphenyl-4-yl]-2-oxo-oxazolidin-5-ylmethyl}-acetamide] | 1 (≈ 1.9 µM) | 1 | –
